Reference: US20130289077A1 (priority 2010, published 2013)

Key:
[1] = test system: Phytophthora infestans; type: in vivo; conditions: tomato young plants, preventive spray, 100 ppm of active ingredient, evaluated 7 days after inoculation; 0% = untreated control, 100% = no disease
[2] = Measurement of logP by HPLC on reversed phase columns (EEC directive 79/831 Annex V.A8); type: physicochemical; conditions: pH 2.7, 0.1% formic acid in water / acetonitrile gradient

| SMILES | Eff. % [1] [%] | chromatographic logP ([2]; reversed phase HPLC column, read-out: LogP (HCOOH)) | LogP (HCOOH) [2] |
| --- | --- | --- | --- |
| CCC(C)=NOC(=O)Nc1cccc(CO/N=C(/c2ccccc2)c2nnnn2C)n1 [Example 1, [(butan-2-ylideneamino)oxy]({6-[({[(Z)-(1-methyl-1H-tetrazol-5-yl)(phenyl)methylene]amino}oxy)methyl]pyridin-2-yl}amino)methanone] | 95 | 3.27 |  |
| CCCCC(C)=NOC(=O)Nc1cccc(CON=C(c2ccccc2)c2nnnn2C)n1 [Example 2] | 92 |  | 3.96 |
| CC(=NOC(=O)Nc1cccc(CON=C(c2ccccc2)c2nnnn2C)n1)c1ccccc1 [Example 3] | 94 |  |  |
| CCC(=NOC(=O)Nc1cccc(CON=C(c2ccccc2)c2nnnn2C)n1)c1ccccc1 [Example 4] | 97 |  |  |
| CC(=NOC(=O)Nc1cccc(CON=C(c2ccccc2)c2nnnn2C)n1)C(C)(C)C [Example 7] | 95 |  |  |
| Cn1nnnc1C(=NOCc1cccc(NC(=O)ON=C(CCl)C(C)(C)C)n1)c1ccccc1 [Example 8] | 93 |  |  |
| CCCCCCC(C)=NOC(=O)Nc1cccc(CON=C(c2ccccc2)c2nnnn2C)n1 [Example 11] | 90 |  | 4.79 |
| CC(=NOC(=O)Nc1cccc(CON=C(c2ccccc2)c2nnnn2C)n1)C(C)C [Example 13] | 95 |  |  |
| CC(C)=NOC(=O)Nc1cccc(CON=C(c2ccccc2)c2nnnn2C)n1 [Example 14] | 92 |  |  |
| CC(=NOC(=O)Nc1cccc(CON=C(c2ccccc2)c2nnnn2C)n1)C1CC1 [Example 18] | 93 |  |  |
| CCCCCC(C)=NOC(=O)Nc1cccc(CON=C(c2ccccc2)c2nnnn2C)n1 [Example 20] | 95 |  | 4.39 |
